# Numbered stars: 1 amine (or outer) side, 2 acyl side, 3 side chain; on linkers, the order of the positions; unused ones are H or OH. Square brackets hold non-standard residues; d marks the D form. Peptide text beside a SMILES is read from it. dAla(ψthiazole) = C[C@@H](N[*:1])c1nc(C(=O)[*:2])cs1; Trp(4-OMe) = COc1cccc2[nH]cc(C[C@H](N)C(=O)O)c12; X1 = CC(=O)[C@](C)(N[*:1])C(=O)[*:2]; dNMeY = CN[C@H](Cc1ccc(O)cc1)C(=O)O; Dhb = C/C=C(\N)C(=O)O; Sar = CNCC(=O)O
# Key:
# [1] = test system: Human alphaherpesvirus 1; assay: Antiviral activity against HSV-1 infected in African green monkey Vero cells by plaque reduction assay; type: functional, organism-based; settings: Human alphaherpesvirus 1, Vero
# [2] = test system: Human alphaherpesvirus 2; assay: Antiviral activity against HSV-2 186 infected in African green monkey Vero cells assessed as reduction in virus induced cytopathogenicity by plaque reduction assay; type: functional, organism-based; settings: Human alphaherpesvirus 2, Vero
# [3] = test system: Human alphaherpesvirus 3; assay: Antiviral activity against VZV infected HFF cells assessed as reduction in viral replication; type: functional, organism-based; settings: Human alphaherpesvirus 3, HFF
# [4] = Cytotoxicity against African green monkey Vero cells assessed as reduction in cell viability measured after 72 hrs by MTT assay; type: toxicity, cell-based; settings: chlorocebus sabaeus
# [5] = test system: Human immunodeficiency virus 2; assay: Antiviral activity against HIV-2 ROD infected in human MT4 cells assessed as protection against virus induced cytopathic effect and measured after 5 days by MTT spectrophotometric assay; type: functional, organism-based; settings: Human immunodeficiency virus 2, ROD, MT4, 120 h
# [6] = test system: Human immunodeficiency virus 1; assay: Antiviral activity against wild type HIV-1 IIIB infected in human MT4 cells assessed as protection against virus-induced cytopathic effect incubated for 5 days by MTT assay; type: functional, organism-based; settings: Human immunodeficiency virus 1, IIIB, MT4, 120 h
# [7] = test system: Human immunodeficiency virus 1; assay: Antiviral activity against HIV1 A17 infected in human C8166 cells assessed as protection against virus-induced cytopathic effect incubated for 5 days by MTT assay; type: functional, organism-based; settings: Human immunodeficiency virus 1, A17, C8166, 120 h
# [8] = test system: Human immunodeficiency virus 1; assay: Antiviral activity against HIV1 9495 infected in human C8166 cells assessed as protection against virus-induced cytopathic effect incubated for 5 days by MTT assay; type: functional, organism-based; settings: Human immunodeficiency virus 1, 9495, C8166, 120 h
# [9] = test system: Human immunodeficiency virus 2; assay: Antiviral activity against HIV-2 ROD infected in C8166 cells assessed as reduction in viral replication measured after 3 days by ELISA; type: functional, organism-based; settings: Human immunodeficiency virus 2, ROD, C8166, 72 h
# [10] = test system: Human immunodeficiency virus 2; assay: Antiviral activity against wild type HIV-2 CBL-20 infected in human MT4 cells assessed as protection against virus-induced cytopathic effect incubated for 5 days by MTT assay; type: functional, organism-based; settings: Human immunodeficiency virus 2, CBL-20, MT4, 120 h
# [11] = Cytotoxicity against human MT4 cells assessed as reduction in cell viability incubated for 5 days by MTT assay; type: toxicity, cell-based; settings: time 5 day
# [12] = test system: Human alphaherpesvirus 1; assay: Antiviral activity against HSV-1 at 25 uM relative to control; type: functional
# [13] = molecular target: Human immunodeficiency virus type 1 reverse transcriptase (Human immunodeficiency virus 1, UniProt Q72547); assay: Inhibition of HIV-1 NL4-3 reverse transcriptase by RT-PCR analysis
# [14] = test system: A549; assay: Cytotoxicity against human A549 cells assessed as reduction in cell growth incubated for 5 days by MTS assay; type: functional; settings: A549, 120 h, time 5 day
# [15] = test system: Human alphaherpesvirus 1; assay: Antiviral activity against HSV-1 106 infected in African green monkey Vero cells assessed as reduction in virus induced cytopathogenicity by plaque reduction assay; type: functional, organism-based; settings: Human alphaherpesvirus 1, 106, Vero
# [16] = test system: Human alphaherpesvirus 1; assay: Antiviral activity against HSV-1 KOS infected in African green monkey Vero cells assessed as reduction in virus induced cytopathogenicity by plaque reduction assay; type: functional, organism-based; settings: Human alphaherpesvirus 1, KOS
# [17] = test system: Human alphaherpesvirus 1; assay: Antiviral activity against HSV-1 153 infected in African green monkey Vero cells assessed as reduction in virus induced cytopathogenicity by plaque reduction assay; type: functional, organism-based; settings: Human alphaherpesvirus 1, 153, Vero
# [18] = test system: Human alphaherpesvirus 1; assay: Antiviral activity against HSV-1 blue infected in African green monkey Vero cells assessed as reduction in virus induced cytopathogenicity by plaque reduction assay; type: functional, organism-based; settings: Human alphaherpesvirus 1, blue
# [19] = test system: Influenza A virus; assay: Antiviral activity against influenza A virus (H1N1/A/WSN/33) infected in MDCK cells assessed as inhibition of cytopathic effect incubated for 48 hrs by MTT assay; type: functional, organism-based; settings: H1N1/A/WSN/33, MDCK
# [20] = test system: Human immunodeficiency virus 1; assay: Antiviral activity against HIV1; type: functional, organism-based
# [21] = Cytotoxicity against African green monkey Vero E6 cells assessed as reduction in cell growth incubated for 24 hrs by WST-8 assay; type: toxicity, cell-based, Vero C1008; settings: chlorocebus sabaeus
# [22] = test system: SARS-CoV-2; assay: microbe, parasite or virus in culture; settings: Severe acute respiratory syndrome coronavirus 2, NRC-03-nhCoV, Vero C1008, 72 h
# [23] = molecular target: T1, Replicase polyprotein 1ab (Severe acute respiratory syndrome coronavirus 2, UniProt P0DTD1); assay: Inhibition of SARS-CoV-2 3CL protease by FRET assay
# [24] = test system: SARS-CoV-2; assay: Antiviral activity against SARS-CoV-2 B.1.1.7 infected in human Calu-3 cells assessed as inhibition of viral infection measured after 48 hrs by Hoechst 33342 staining based analysis; type: functional, organism-based; settings: Severe acute respiratory syndrome coronavirus 2, B.1.1.7, Calu-3, 48 h
# [25] = test system: SARS-CoV-2; assay: Antiviral activity against SARS-CoV-2 […] B.1.351 Beta infected in human 293TA cells assessed as reduction of viral growth measured after 48 hrs by luciferase assay; type: functional, organism-based; settings: Severe acute respiratory syndrome coronavirus 2, […] B.1.351 Beta
# [26] = test system: Calu-3; assay: Cytotoxicity against human Calu-3 cells assessed as reduction in cell viability measured after 48 hrs by Hoechst 33342 staining based analysis; type: functional
# [27] = test system: SARS-CoV-2; assay: Antiviral activity against SARS-CoV-2 RG2674 infected in African green monkey Vero cells assessed as reduction in virus-induced cytopathic effect incubated for 5 days by microscopic analysis; type: functional, organism-based; settings: Severe acute respiratory syndrome coronavirus 2, RG2674, Vero, 120 h
# [28] = molecular target: T1, Replicase polyprotein 1ab; assay: Inhibition of SARS-CoV-2 3CL protease
smiles,measurement,setting,value
CCCCCCCCCc1oc2c(O)ccc(-c3oc4cc(O)cc(O)c4c(=O)c3O[C@@H]3O[C@H](CO)[C@H](O)[C@H](O)[C@H]3O)c2c1C=O,EC50,[1],23.5 µM
same,EC50,[2],36.4 µM
same,EC50,[3],23.5 µM
same,CC50 at 72 h,[4],166 µM
C=C(C)[C@@]12O[C@@]3(/C=C/C=C/C=C/CCC)O[C@@H]1[C@@H]1[C@@H]4O[C@]4(CO)[C@@H](O)[C@]4(O)C(=O)C(C)=C[C@H]4[C@@]1(O3)[C@H](C)[C@H]2OC(=O)/C=C/c1ccc(O)cc1,EC50,[5],> 0.034 µM
C=C(C)[C@]1(O)C[C@@H](C)[C@@]2(O)[C@H]([C@H]1OC(=O)/C=C/C=C/CCCCC)[C@@H]1O[C@]1(CO)[C@@H](O)[C@]1(O)C(=O)C(C)=C[C@H]12,EC50,[6],0.00872 µg/mL
same,EC50,[7],0.00381 µg/mL
same,EC50,[8],0.0157 µg/mL
same,EC50,[9],0.0189 µg/mL
same,EC50,[10],0.0319 µg/mL
same,CC50 at 120 h,[11],65.6 µg/mL
C=C1CC[C@]2(O)[C@H]1CC1=C(C)C(=O)OC1=C[C@]2(C)O,Activity,[12],69.2%
COc1ccc(C[C@@H](CO)[C@H](COC(C)=O)Cc2ccc(OC)c(OC)c2)cc1OC,IC50,[13],12.2 µM
same,CC50,[14],11.6 µg/mL
COc1ccc(C[C@@H]2NC(=O)[C@@H]3CCCN3C(=O)[C@H](C(C)C)NC(=O)[C@@H](Cc3ccc(O)cc3)N(C)C(=O)[C@H](Cc3ccc(OC)cc3)NC2=O)cc1 (cyclo(PY(Me)Y(Me)[dNMeY]V)),EC50,[15],10.4 µM
same,CC50 at 72 h,[4],209 µM
same,EC50,[16],7.9 µM
same,EC50,[17],8.28 µM
same,EC50,[18],7.9 µM
C/C=C1\NC(=O)[C@@H](C)NC(=O)CNC(=O)[C@](C)(C(C)=O)NC(=O)[C@H](Cc2c[nH]c3cccc(OC)c23)NC(=O)c2csc(n2)[C@@H](C)NC(=O)CN(C)C1=O (cyclo([Dhb][Sar][dAla(ψthiazole)][Trp(4-OMe)][X1]G[dA])),EC50,[19],0.3 µM
O=c1cc(-c2ccc(O)c(-c3c(O)cc(O)c4c(=O)cc(-c5ccc(O)cc5)oc34)c2)oc2cc(O)cc(O)c12 [AMENTOFLAVONE],EC50,[20],8.3 µM
O=C(O)[C@H]1O[C@@H](Oc2cc3oc(-c4ccccc4)cc(=O)c3c(O)c2O)[C@H](O)[C@@H](O)[C@@H]1O [BAICALIN],CC50 at 24 h,[21],> 200 µM
same,EC50,[22],27.9 µM
CC(C)=CCC/C(C)=C/COc1c2ccoc2cc2oc(=O)ccc12 [BERGAMOTTIN],IC50,[23],9.64 µM
same,IC50,[24],8.15 µM
same,IC50,[25],14.2 µM
same,CC50,[26],> 100 µM
Nc1ncnc2c1ncn2[C@@H]1O[C@H](CO)C[C@H]1O [CORDYCEPIN],EC50,[27],2 µM
COc1cc(O)c(C(=O)[C@@H]2[C@H](CC=C(C)C)C(C)=CC[C@H]2c2ccccc2)c(O)c1 [PANDURATIN A],CC50 at 24 h,[21],14.7 µM
same,IC50,[28],0.81 µM

# Source: ChEMBL document CHEMBL5537109, “Natural products as potential lead compounds to develop new antiviral drugs over the past decade” (Eur J Med Chem, 2023)
